Values quoted from earlier work, collected in patent US20120289547A1, “COMBINATIONS OF PROPIVERINE AND SALIVARY STIMULANTS FOR THE TREATMENT OF OVERACTIVE BLADDER” (THERAVIDA, INC., priority 2011, published 2012).

Details: 5 mg of pilocarpine

For CC[C@@H]1C(=O)OC[C@@H]1Cc1cncn1C [pilocarpine], the “Time of maximum saliva output after administration” value is given as “about 30 minutes”.
